Where a name gives a salt, the structure may show the parent alone.
Assay: In vivo pharmacokinetic investigation, subcutaneous injection, plasma by LC-MS
Set-up: species or system rat
Conditions: in rats, inferred from PK and duration of efficacy
Description: The obtained pharmaceutical composition was subcutaneously injected into male SD rats. Blood was collected at predetermined time points. The content of the drug in plasma was determined by LC-MS method, and the pharmacokinetics in vivo was investigated.
Experimental animals: male SD rats with a weight of 200-300 g, source: […] OF MATERIA MEDICA, CHINESE ACADEMY OF SCIENCES;
Experimental grouping: Rats were randomly divided into groups according to the following table, with 6 rats in each group;
Experimental procedure: Rats were subcutaneously injected, and at a predetermined time point, 0.5 ml of blood was collected from the orbit of the rat and placed in a centrifuge tube with heparin sodium anticoagulation. The tube was centrifuged at 3000 rpm for 10 min to separate the plasma, and the plasma concentration was detected by LC-MS method.
The pharmacokinetic (PK) parameters of the compositions were calculated, and the results were statistically analyzed by t-test.

onset concentration: about 20 ng/ml
Structure (SMILES): CCCN1CCCC[C@H]1C(=O)Nc1c(C)cccc1C [ropivacaine hydrochloride]

— patent publication US20230080811A1 (priority 2020, published 2023)
